From patent publication US8293979B2, “Weed controller metabolism proteins, genes, thereof and use of the same” (Sumitomo Chemical Company, Limited, priority 2001, dated 2012)

Key:
[1] = test system: present invention protein (A22); experiment: Detection of the ability to convert compound (II) to compound (III), E. coli pKSN1558BF extract; format: in vitro ADME, Streptomyces pallidus IFO 13434T; details: 3 ppm of compound (II) labeled with 14C, components A, B, 10 minutes at 30° C.
Procedure: (§1) Reaction solutions of 30 μl were prepared and maintained for 10 minutes at 30° C. The reaction solutions consisted of a 0.1M potassium phosphate buffer (pH7.0) containing 3 ppm of compound (II) labeled with ^14C, 2 mM of β-NADPH (hereinafter, referred to as “component A”) (Oriental Yeast Company), 2 mg/ml of a ferredoxin derived from spinach (hereinafter referred to as “component B”) (Sigma Company), 0.1 U/ml of ferredoxin reductase (hereinafter, referred to as “component C”) (Sigma Company) and 23 μl of the supernatant fraction recovered in Example 32(2). Similarly to Example 4(3), the reaction solutions after the maintenance were extracted with ethyl acetate and the extracted layers were TLC analyzed. […] A spot corresponding to compound (III) was detected from the reaction solution containing E. coli pKSN849AF extract. In contrast, such a spot was not detected from the reaction solution containing E. coli pKSN2 extract.
(§2) Similarly to Example 32(3), reaction solutions of 30 μl were prepared and maintained for 10 minutes at 30° C. […] The reaction solutions after the maintenance were extracted with ethyl acetate and the extracted layers were TLC analyzed. […] A spot corresponding to compound (III) was detected from the reaction solution containing E. coli pKSN1558BF extract. In contrast, such a spot was not detected from the reaction solution containing E. coli pKSN2 extract.

[2] = test system: present invention protein (A18); experiment: Detection of the ability to convert compound (II) to compound (III), E. coli pKSN646BF extract; format: in vitro ADME, Streptomyces achromogenes IFO 12735; details: 3 ppm of compound (II) labeled with 14C, components A, B, 10 minutes at 30° C.
Procedure: as §1
as §2, with “pKSN646BF” for “pKSN1558BF”

[3] = test system: Ivyleaf morningglory; experiment: Herbicidal activity test, foliage treatment; format: in vivo, Ipomoea hederacea; parameters: key: 0: situations in which the condition of sprouting or vegetation at the time of examination of the plant utilized for the test was compared with and showed totally or substantially no difference with that of the untreated application; 10: situations in which the plant completely withered or the sprouting or vegetation was completely suppressed; details: sprayed onto the foliage of plants cultivated 10 days, investigated after 16 days in a greenhouse
Procedure: (§3) Soil was packed into a round plastic pot having a diameter of 10 cm and depth of 10 cm. Barnyardgrass, Blackgrass, Ivyleaf morningglory were seeded and cultivated in a greenhouse for 10 days. Five (5) parts of the test compound, 6 parts of sorpol3005X (Toho Chemical Company) and 89 parts of xylene were well mixed to produce an emulsion. A certain amount thereof was diluted with water containing 0.1% (v/v) of a sticking agent at a proportion of 1000 L for 1 hectare and was spread uniformly with a spray-gun onto the all sides of the foliage from above the plant cultivated in the above pot. After cultivating the plants for 16 days in a greenhouse, the herbicidal activity of the test compound was investigated.
(§4) In the above Tables 3 and 4, the strength of the herbicidal activity is shown stepwise as 0, 1, 2, 3, 4, 5, 6, 7, 8, 9, and 10.

[4] = test system: Blackgrass; experiment: Herbicidal activity test, foliage treatment; format: in vivo, Alopercurus myosuroides; parameters: key: 0: situations in which the condition of sprouting or vegetation at the time of examination of the plant utilized for the test was compared with and showed totally or substantially no difference with that of the untreated application; 10: situations in which the plant completely withered or the sprouting or vegetation was completely suppressed; details: sprayed onto the foliage of plants cultivated 10 days, investigated after 16 days in a greenhouse
Procedure: as §3, §4

[5] = test system: present invention protein (A15); experiment: Detection of the ability to convert compound (II) to compound (III), E. coli pKSN1555AF extract; format: in vitro ADME, Streptomyces olivochromogenes IFO 12444; details: 3 ppm of compound (II) labeled with 14C, components A, B, 10 minutes at 30° C.
Procedure: as §1
as §2, with “Reaction” for “Similarly to Example 32(3), reaction”, “pKSN1555AF” for “pKSN1558BF”

[6] = test system: present invention protein (A14); experiment: Detection of the ability to convert compound (II) to compound (III), E. coli pKSN1491AF extract; format: in vitro ADME, Streptomyces glomerochromogenes IFO 13673t; details: 3 ppm of compound (II) labeled with 14C, components A, B, 10 minutes at 30° C.
Procedure: as §1
as §2, with “Reaction” for “Similarly to Example 32(3), reaction”, “pKSN1491AF” for “pKSN1558BF”

[7] = test system: present invention protein (A24); experiment: Metabolism of compounds by the present invention protein (A24), reaction solution, HPLC; format: in vitro ADME, Streptomyces rutgersensis IFO 15875T; details: 12.5 ppm of compound, components A, B, C, 20 μl supernatant fraction of Example 65(2), 30° C. for 10 minutes

| SMILES | spot corresponding to compound (III) labeled with 14C (TLC) [1] | spot corresponding to compound (III) labeled with 14C (TLC) [2] | Herbicidal Activity Ivyleaf Morningglory ([3]; 125 g/ha) | Herbicidal Activity Ivyleaf Morningglory ([3]; 500 g/ha) | Herbicidal Activity Blackgrass ([4]; 125 g/ha) | Herbicidal Activity Blackgrass ([4]; 500 g/ha) | spot corresponding to compound (III) labeled with 14C (TLC) [5] | spot corresponding to compound (III) labeled with 14C (TLC) [6] | concentration of the compound detected from metabolism solution (A24) compared to control solution (A24) [7] |
| --- | --- | --- | --- | --- | --- | --- | --- | --- | --- |
| C[C@@H](Oc1cc(-n2c(=O)cc(C(F)(F)F)n(C)c2=O)c(F)cc1Cl)C(=O)O [compound (II)] | detected | detected | 10 | 10 | 10 | 10 | detected | detected | – |
| Cn1c(C(F)(F)F)cc(=O)n(-c2cc(Oc3cccnc3OCC(=O)O)c(Cl)cc2F)c1=O [compound (XII)] | – | – | – | – | – | – | – | – | lower |
